Data published in publication PMC7714403 (JCI Insight, 2020).
“And” between values parts separate entries of the source, which are not always exact repeats. Equal entries are not always repeated.

Tests used:
[1] = system: MV4-11, MOLM13, and MOLM13-RES cells; test: Cell cycle analysis; format: cell-based, human; conditions: 20 nM, 12 hours
Description: (§1) Luc+ or MOLM13-Res -Luc+ cells, 0.5 million OCI-AML3 -Luc+ cells, and 10,000 Ba/F3-FLT3-ITD/F691L-GFP+ cells. Weekly tumor engraftment of cell line xenograft models were assessed after injection of D-luciferin (150mg/kg i.p.; Gold Biotechnology, Inc, St. Louis, MO) on Xenogen IVIS-200 imaging system (Perkin Elmer, Waltham, MA) or GFP monitoring by peripheral blood via BD LSR II flow cytometer (BD Biosciences, San Jose, CA). Signal intensity was analyzed using Living Image Software (PerkinElmer) or FlowJo v10.0.08 software (FlowJo, LLC, Ashland, OR). Mice were randomized to treatment groups based on signal intensity and leukemia burden. Drug treatments were started on days 3, 7, or 13 after cell injection in OCI-AML3, MOLM13, and MOLM13-Res xenografts, respectively. In murine AML transplantation model, 1 million FLT3-ITD+/-/IDH2-R140Q+/- splenocytes (in house colony) were intravenously injected in male NSG mice. On day 7, mice were started on drug treatments. […]
(§2) At indicated time points, cells were collected and washed with PBS. CD11b expression was measured using anti-CD11b -APC antibody (BioLegend, San Diego, CA). […] CD11b expression and apoptosis were measured by BD LSR II flow cytometer. […]
(§3) with DAPI in 0.1% Triton-X (ThermoFisher Scientific) PBS for 30 minutes at room temperature and protected from light. The DNA content was determined using a BD LSR II flow cytometer. […]

OCI-AML3 cells [2] = test: Cell cycle analysis; format: cell-based, human; conditions: 20 nM, 12–24 hours
Description: as §1, §2, §3

NEK7 = NEK7 (Homo sapiens, UniProt Q8TDX7); test: KiNativ, OCI cells live cell; format: cell-based; conditions: 2 h, labeling site Lys1, peptide […]
Sequence of NEK7 (Q8TDX7 whole entry): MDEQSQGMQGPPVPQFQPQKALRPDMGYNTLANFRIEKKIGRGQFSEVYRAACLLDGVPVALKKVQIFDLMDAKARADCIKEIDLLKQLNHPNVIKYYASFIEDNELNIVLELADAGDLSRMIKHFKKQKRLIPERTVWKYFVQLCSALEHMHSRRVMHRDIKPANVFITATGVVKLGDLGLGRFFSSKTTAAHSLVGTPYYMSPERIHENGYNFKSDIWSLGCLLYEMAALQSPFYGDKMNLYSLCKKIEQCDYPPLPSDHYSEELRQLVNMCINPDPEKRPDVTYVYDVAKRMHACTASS

[3] = Tolerability studies in tumor-bearing mice; format: in vivo; conditions: once daily continuously or 5 consecutive days per week, up to 3–6 weeks
Description: We performed tolerability studies in tumor-bearing 8- to 12-week-old female NOD-scid-γ (NSG) mice.
days/week, along with vehicle, was administered in female NSG mice engrafted with MOLM13 -Luc+ and
MOLM13-Res -Luc+ cells. Treatment started on day-7 and -13 post-tail vein injection (TVI) in MOLM13-Luc+
and MOLM13-Res -Luc+, respectively. Change in their daily weights (%) were followed for tolerability.
(1 picture or pasted object on this page, not shown here)

[4] = system: MV4-11, MOLM13, and MOLM13-RES cells; test: CD11b expression assay; format: cell-based, human; conditions: 20 nM, 72 hours
Description: (§4) Apoptosis and CD11b expression assays
(§5) At indicated time points, cells were collected and washed with PBS. CD11b expression was measured using anti-CD11b -APC antibody (BioLegend, San Diego, CA). Each sample was suspended in 100uL of FACS buffer (PBS + 4% FBS) with 1uL of antibody, incubated on ice for 15 minutes in the dark and washed once in PBS. DAPI (final concentration 1ug/mL [ThermoFisher Scientific]) was added to each sample as a viability dye. For apoptosis assay, cells were incubated with annexin V-APC (BioLegend) according to manufacturer’s instructions. CD11b expression and apoptosis were measured by BD LSR II flow cytometer. Two-color cytometry was performed, and data were […]
(§6) points, cells were collected and washed with 0.1% EDTA PBS (Ricca Chemical Company, Arlington, TX) followed by only PBS. Cells were then fixed on ice with ice-cold 70% ethanol for 30 minutes . Cells were either stored at -20°C for up to 1 month or processed immediately. Cells were spun down at 450 x g for 10 minutes and stained

OCI-AML3 cells [5] = test: CD11b expression assay; format: cell-based, human; conditions: 20 nM and 50 nM, 72 hours
Description: as §4, §5, §6

MARK2, MARK3 = test: KiNativ, OCI cells live cell; format: cell-based, human; conditions: labeling site Lys2, peptide DLKAENLLLDADMNIK

SMILES: CN1CCN(Cc2ccc(Nc3ncc(Cl)c(Nc4ccccc4S(=O)(=O)N(C)C)n3)cc2)CC1 [TP-0903]
- Cell cycle [1]: G2-M cell cycle arrest
- Cell cycle (OCI-AML3 cells [2]): G2-M cell cycle arrest
- inhibition at 0.1 µM (NEK7): -38.8%
- Highest tolerated doses [3]: 40 mg/kg and 60 mg/kg
- Cell surface expression of CD11b [4]: increased
- CD11b expression (OCI-AML3 cells [5]): increase
- Inhibition (MARK2, MARK3): 50.8%
